Experimental data taken from patent US11918550B2, “Sensitization of cancer cells to differentiation therapy with mitochondrial uncoupler niclosamide ethanolamine” (The Board of Trustees of the Leland Stanford Junior …, priority 2020, dated 2024).

Experiments:
[1] = system: SK-N-BE(2) cells; assay: Infinium Methylation EPIC array, locus-specific DNA methylation; assay type: cell-based
Protocol: DNA microarray analysis. DNA extraction was carried out with samples were extracted by using PureLink™ Genomic DNA Mini Kit (Gibco, K182001), according to the protocol provided by the supplier. The DNA was quantified with the Nanodrop and 3 ug was used for bisulfite modification using the EZ DNA methylation kit (D5001, Zymo Research, Orange, CA) according to the protocol provided with the modification step according to the recommendations for array processing of the samples. Control PCR reactions were carried out before array analysis to confirm successful modification of the DNA. The bisulfite-modified DNA (500 ng) was applied to the Infinium MethylationEPIC array (Illumina). After bisulfite treatment of the DNA samples, the cytosines in the CpG sites were genotyped as C/T polymorphisms according to the manufacturer's protocol. Raw array data was collected with 866 k probes for 8 samples across 4 stages (those are control, 5 hours, 24 hours and 48 hours). The fluorescence signals were measured from the BeadArrays using an Illumina BeadStation GX scanner.
The fluorescence data were then analyzed using the GenomeStudio software (Illumina). The software assigns a score called a “b value” to each CpG site, which corresponds to the ratio between the fluorescence signal of the methylated allele (C) and the sum of the fluorescent signals of the methylated (C) and unmethylated (T) alleles. The data generated by the BeadStudio software was exported and further analyses were performed in the R programming environment. Then a detection p-value for every probe in every sample, representing the quality of the signal is generated using method minfi. Poor probes with all samples' p-values larger than or equal to 0.01 are removed which results in 864 k probes left. For methylation levels estimations we use M-Values (log 2 based Methylation signal over unmethylation signal) for analysis.
Differential Methylation Probes are identified by first standardizing M-Values with both rows and columns and then enforced certain direction (hypermethylated or hypomethylated) between control versus treatments. The p-values used in the volcano plot is calculated through Fisher' method by combining quality p-value for all samples with each probe.

[2] = system: HIF target genes such as pdk1, pdk3, pgk1 and Idha; assay: RT-PCR of HIF target genes; assay type: cell-based; settings: SK-N-BE(2), 2 or 4 μM NEN, normoxia or hypoxia
Protocol: RNA isolation, reverse transcription, and real-time PCR. The procedure was performed as described before. Briefly, total RNA was isolated from 60 mm tissue culture plates according to the TRIzol Reagent (Invitrogen, 15596026) protocol. 3 μg of total RNA was used in the reverse transcription reaction using the iScript cDNA synthesis kit (Bio-Rad). Quantitative PCR amplification was performed on the Prism 7900 Sequence Detection System (Applied Biosystems) using Taqman Gene Expression Assays (Applied Biosystems). Gene expression level were normalized to 18S rRNA.

[3] = system: SK-N-BE(2) cells; assay: Western blot of RA signaling proteins; assay type: cell-based; settings: 24 hrs
Protocol: (§1) Protein extraction and immunoblot. Cells were washed with ice-cold PBS buffer (Invitrogen, 20012050) and lysed with harvest buffer (10 mM Hepes pH 7.9, 50 mM NaCl, 500 mM sucrose, 0.1 mM EDTA and 0.5% Trition X-100) supplemented with 1% Halt inhibitors (Thermo Scientific™, 78443) for 10 minutes. Cell lysate was centrifuged at 3000 rpm for 3 min at 4° C. The supernatant containing cytosolic proteins was transferred to a different tube. The pellet containing nuclear proteins was dissolved with nuclear lysis buffer (10 mM Hepes pH 7.9, 0.5M NaCl, 0.1 mM EDTA, 0.1 mM EGTA and 0.1% NP40) supplemented with 1% Halt inhibitors (Thermo Scientific™, 78443) for 5 minutes at 4° C. Then the solution was sonicated at 4° C. for 6 cycles (1 cycle=30 s sonication and 30 s cooldown with “High” energy intensity) using a Bioruptor® Plus sonication (Diagenode, UCD-300). After sonication, the solution was centrifuged at 15,000 rpm for 10 minutes. The supernatant was kept as nuclear extraction. Protein concentration was determined by BCA assay (Thermo Scientific, 23227). 5 μg nuclear proteins or 7.5 μg cytosolic proteins were boiled in loading buffer with reducing reagents (Invitrogen, NuPAGE™ LDS Sample Buffer (4X), NP0007), then separated with SDS-PAGE (Nupage™ 4-12% Bis-Tris Protein Gels, 1.0 mm, Invitrogen™, NP0322BOX). Protein was transferred onto a nitrocellulose membrane (Thermo Scientific™, 88018). After blocking in 5% non-fat milk for 30 minutes at room temperature (RT), the primary antibody was added for incubation overnight at 4° C. After washing with TBST (CST, #9997, 1:10 diluted by deionized water) for 3 times, HRP-conjugated secondary antibodies were applied. Signals were detected with an ECL kit (Thermo Scientific™, 34577) by using BioRad Universal Hood II.

[4] = system: orthotopic neuroblastoma xenograft (SK-N-BE(2) cells); assay: H&E histology and immunohistochemistry of orthotopic tumors; assay type: in vivo, mice; settings: diet 2000 ppm NEN vs control
[5] = system: SK-N-BE(2) cells; assay: Proliferation after hypoxia pretreatment and replating; assay type: cell-based; settings: 1 μM NEN under hypoxia 4 days, replated under normoxia, counted after 5 days
Protocol: Cell proliferation and clonogenic assay. 2×10^4 cells were seeded in 12 well-plate and allowed to attached overnight. Then the cells were treated with various conditions as indicated for 48 h or 96 h (n=3). After treatment, cells were counted using hemocytometer.

[6] = system: NB16 cells; assay: Western blot of β-catenin and p53; assay type: cell-based; settings: NB16, 1 μM NEN 24 and 48 hrs
Protocol: as §1

[7] = system: SK-N-BE(2) cells; assay: Western blot of β-catenin and p53; assay type: cell-based; settings: 1 μM NEN 24 and 48 hrs
Protocol: as §1

[8] = system: RA-resistant neuroblastoma cells; assay: Clonogenic assay; assay type: cell-based; settings: 1 μM NEN with 1 μM RA, two weeks
Protocol: For the clonogenic assay, 500 cells were plated in 60 mm dishes. After 24 h, cells were treated with indicated conditions. After 14 days, the cells were fixed by 50% methanol in PBS for 15 minutes and stained by crystal violet staining solution (0.5% crystal violet and 25% methanol in PBS). The quantification was done by using countPHICS.

O=C(Nc1ccc([N+](=O)[O-])cc1Cl)c1cc(Cl)ccc1O [NEN, 5-chloro-N-(2-chloro-4-nitrophenyl)-2-hydroxybenzamide compound with 2-aminoethanol (1:1)]
differentially methylated sites close to transcription start sites (TSS200, 1st exon) ([1]; 1 μM NEN 24 or 48 hours): more hypomethylated sites than hypermethylated sites
differentially methylated sites in 'shelf' and 'shore' regions (vs CpG islands) ([1]; 1 μM NEN 24 or 48 hours): opposite trend
differentially methylated sites in CpG islands ([1]; 1 μM NEN 24 or 48 hours): more hypo-methylated sites than hyper-methylated sites
differentially methylated sites in the gene body and 3′ UTR region ([1]; 1 μM NEN 24 or 48 hours): more hypermethylated sites than hypomethylated sites
DNA methylation levels of CpG sites in the promoter region of p53 and CTNNBIP1 ([1]; 1 μM NEN 24 h): upregulated/downregulated
expression of HIF target genes such as pdk1, pdk3, pgk1 and Idha [2]: reduced
protein level of RARγ ([3]; 1 μM NEN alone): increased
protein level of RARγ ([3]; 1 μM NEN combined with 1 μM RA): further upregulated
N-Myc protein expression in xenografts (IHC) [4]: significantly reduced
enlarged prominent nucleoli in tumor cells (H&E) [4]: much fewer
β-catenin protein expression in xenografts (IHC) [4]: significantly reduced
gain of proliferation advantage from hypoxia pretreatment [5]: blocked
expression of p53 [6]: increased
expression of β-catenin (nuclear protein) [6]: reduced
expression of p53 [7]: increased
expression of β-catenin (nuclear protein) [7]: reduced
inhibition of clonogenicity, NEN with RA [8]: strong synergistic effect
